For the assay, the target named is casein kinase 1 epsilon (CK1 epsilon) (Homo sapiens (Human), UniProt P49674). The experiment in a line: Test A: inhibitory activity on CK1 epsilon, casein phosphorylation assay on ATP-33P filter plate. The format is biochemical. The following applies: IC50 values or IC50 ranges (result of several experiments), ATP 10 μM final. As to the method: The capacity of the compounds of the invention to inhibit the phosphorylation of casein by casein kinase 1 epsilon and/or delta may be evaluated according to the procedures described in document US 2005/0 131 012.
Test A: Inhibitory Activity on CK1 Epsilon Measured by Assay on an ATP-^33P Filter Plate
The effect of the compounds on inhibition of the phosphorylation of casein by the enzyme casein kinase 1 epsilon (CK1 epsilon) is measured, using a casein assay via filtration of ATP-^33P in vitro.
Casein kinase 1 epsilon (0.58 mg/ml) is obtained via fermentation and purification processes performed according to methods that are well known to those skilled in the art, or may also be obtained from Invitrogen Corporation™ (human CK1 epsilon).
The compounds are tested at five different concentrations so as to generate IC50 values, i.e. the concentration at which a compound is capable of inhibiting the enzymatic activity by 50%, or alternatively the percentage of inhibition at a concentration of 10 micromolar.
“U”-bottomed Falcon plates are prepared by placing 5 μL of solutions of the compounds according to the invention at concentrations of 10, 1, 0.1, 0.01 or 0.001 μM in different wells. The solutions of the compounds according to the invention at these various concentrations are prepared by diluting in a test buffer (Tris 50 mM pH 7.5, MgCl2 […], DTT 2 mM and EGTA 1 mM) a stock solution in DMSO at a concentration of 10 mM. Next, 5 μL of dephosphorylated casein are added to a final concentration of 0.2 μg/μL, 20 μL of CK1 epsilon to a final concentration of 3 ng/μL, and 20 μL of ATP-^33P to a final concentration of 0.02 μCi/μL mixed with cold ATP (10 μM final—approximately 2×10^6 CPM per well). The final total test volume per well is equal to 50 μL.
The “U”-bottomed Falcon® test plate mentioned above is vortexed, and then incubated at room temperature for 2 hours. After 2 hours the reaction is stopped by adding an ice-cold solution of 65 μL of cold ATP (2 mM) prepared in test buffer.
100 μL of the reaction mixture are then transferred from the “U”-bottomed Falcon® plate into Millipore® MAPH filter plates, preimpregnated with 25 μL of ice-cold 100% TCA.
The Millipore MAPH filter plates are agitated gently and are left to stand at room temperature for at least 30 minutes to precipitate the proteins.
After 30 minutes, the filter plates are sequentially washed and filtered with 2×150 μL of 20% TCA, 2×150 μL of 10% TCA and 2×150 μL of 5% TCA (6 washes in total per plate/900 μL per well).
The plates are left to dry overnight at room temperature. Next, 40 μL of Microscint-20 Packard® scintillation liquid are added per well and the plates are closed in a leaktight manner. The radiation emitted by each well is then measured for 2 minutes in a TopCount NXT Packard® scintillation counter, in which the values of CPM/well are measured.
The percentage inhibition of the capacity of the enzyme to phosphorylate the substrate (casein) is determined for each concentration of test compound. These inhibition data expressed as percentages are used to calculate the IC50 value for each compound compared with the controls.
The kinetic studies determined the KM value for ATP as being 21 μM in this test system.
Table 2 below gives the IC50 values or the IC50 inhibition ranges (result of several experiments) for the phosphorylation of Casein Kinase 1 Epsilon for a number of compounds according to the invention.

What is called IC50 is the concentration that inhibits the measured activity by half.

casein kinase 1 epsilon (CK1 epsilon), sequence (P49674 whole entry): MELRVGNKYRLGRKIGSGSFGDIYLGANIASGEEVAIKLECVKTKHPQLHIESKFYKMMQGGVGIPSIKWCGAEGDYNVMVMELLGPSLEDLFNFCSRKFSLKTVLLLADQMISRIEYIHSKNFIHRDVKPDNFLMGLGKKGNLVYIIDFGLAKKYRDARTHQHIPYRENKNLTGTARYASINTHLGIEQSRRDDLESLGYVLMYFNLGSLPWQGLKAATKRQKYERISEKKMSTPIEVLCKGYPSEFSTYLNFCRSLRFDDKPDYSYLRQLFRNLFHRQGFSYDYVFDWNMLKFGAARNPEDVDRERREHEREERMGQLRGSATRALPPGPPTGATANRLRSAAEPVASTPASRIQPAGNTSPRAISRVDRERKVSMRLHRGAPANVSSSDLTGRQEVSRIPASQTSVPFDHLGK

Consider `CC(C)(C)NC(=O)N1CCn2c(c(C(N)=O)c(-c3cccc(C#N)c3)c2C2CC2)C1` [Compound 21, N^2-tert-butyl-7-(3-cyanophenyl)-6-cyclo-propyl-3,4-dihydropyrrolo[1,2-a]pyrazine-2,8(1H)-dicarboxamide], for which the IC50 was in the range of 0.026 to 0.046 µM.
In the case of `CC(C)(C)NC(=O)N1CCn2c(c(C(N)=O)c(-c3ccc(C(F)(F)F)cc3)c2C2CC2)C1` [Compound 24, N^2-tert-butyl-6-cyclo-propyl-7-[4-(trifluoromethyl)phenyl]-3,4-dihydropyrrolo[1,2-a]pyrazine-2,8(1H)-dicarboxamide], it took 0.084 µM to reach half-maximal inhibition (IC50).
Under `COc1ccc(-c2c(C(N)=O)c3n(c2C)CCN(C(=O)NC(C)(C)C)C3)cc1` [Compound 4, N^2-tert-butyl-7-(4-methoxyphenyl)-6-methyl-3,4-dihydropyrrolo[1,2-a]pyrazine-2,8(1H)-dicarboxamide] stands 0.001 to 0.003 µM; under `COc1cccc(-c2c(C(N)=O)c3n(c2Cl)CCN(C(=O)NC(C)(C)C)C3)c1` [Compound 62, tert-butyl-6-chloro-7-(3-methoxyphenyl)-3,4-dihydropyrrolo[1,2-a]pyrazine-2,8(1H)-dicarboxamide], 0.001 to 0.004 µM; under `CN(C)S(=O)(=O)Nc1cccc(-c2c(C(N)=O)c3n(c2C2CC2)CCN(C(=O)NC(C)(C)C)C3)c1` [Compound 26, N^2-tert-butyl-6-cyclo-propyl-7-{3-[(dimethylsulfamoyl)amino]phenyl}-3,4-dihydropyrrolo[1,2-a]pyrazine-2,8(1H)-dicarboxamide], 0.521 µM.
In the case of `CCCCOc1ccc(-c2c(C(N)=O)c3n(c2C2CC2)CCN(C(=O)NC(C)(C)C)C3)cc1` [Compound 38, 7-(4-butoxyphenyl)-N^2-tert-butyl-6-cyclo-propyl-3,4-dihydropyrrolo[1,2-a]pyrazine-2,8(1H)-dicarboxamide] it was 0.152 µM.
Molecule `CC(C)c1ccc(-c2c(C(N)=O)c3n(c2C2CC2)CCN(C(=O)NC(C)(C)C)C3)cc1` [Compound 13, N^2-tert-butyl-6-cyclo-propyl-7-[4-(iso-propyl)phenyl]-3,4-dihydropyrrolo[1,2-a]pyrazine-2,8(1H)-dicarboxamide] gave an IC50 of 0.45 to 1 µM.
Under `NC(=O)c1c(-c2ccccc2)c(Cl)n2c1CN(C(=O)NC1CCS(=O)(=O)C1)CC2` (stereo not drawn) [Compound 101, 6-chloro-N^2-(1,1-dioxydotetrahydrothiophen-3-yl)-7-phenyl-3,4-dihydropyrrolo[1,2-a]pyrazine-2,8(1H)-dicarboxamide] stands 0.009 to 0.024 µM; under `CC(C)(C)NC(=O)N1CCn2c(c(C(N)=O)c(-c3ccc(C(=O)N4CCCC4)cc3)c2C2CC2)C1` [Compound 19, N^2-tert-butyl-6-cyclo-propyl-7-[4-(pyrrolidin-1-ylcarbonyl)phenyl]-3,4-dihydropyrrolo[1,2-a]pyrazine-2,8(1H)-dicarboxamide], 0.587 µM.
In the case of `CC(C)CNC(=O)N1CCn2c(Cl)c(-c3ccccc3)c(C(N)=O)c2C1` [Compound 59, 6-chloro-N^2-iso-butyl-7-phenyl-3,4-dihydropyrrolo[1,2-a]pyrazine-2,8(1H)-dicarboxamide] it was 0.008 to 0.013 µM; in that of `NC(=O)c1c(-c2cccc(F)c2)c(Cl)n2c1CN(C(=O)NC1CCS(=O)(=O)CC1)CC2` [Compound 103, 6-chloro-N^2-(1,1-dioxydotetrahydro-2H-thiopyran-4-yl)-7-(3-fluorophenyl)-3,4-dihydropyrrolo[1,2-a]pyrazine-2,8(1H)-dicarboxamide], 0.007 to 0.014 µM; in that of `CC1(O)CCC(NC(=O)N2CCn3c(Cl)c(-c4cccc(F)c4)c(C(N)=O)c3C2)CC1` (stereo not drawn) [Compound 84, trans-6-chloro-7-(3-fluorophenyl)-N^2-(4-hydroxy-4-methyl-cyclo-hexyl)-3,4-dihydropyrrolo[1,2-a]pyrazine-2,8(1H)-dicarboxamide], 0.001 µM.
In the case of `CC(C)(C)NC(=O)N1CCn2c(c(C(N)=O)c(-c3ccc(C#N)cc3)c2C2CC2)C1` [Compound 22, N^2-tert-butyl-7-(4-cyanophenyl)-6-cyclo-propyl-3,4-dihydropyrrolo[1,2-a]pyrazine-2,8(1H)-dicarboxamide] it was 0.025 µM; in that of `Cc1nnc(-c2ccc(-c3c(C(N)=O)c4n(c3C3CC3)CCN(C(=O)NC(C)(C)C)C4)cc2)o1` [Compound 23, N^2-tert-butyl-6-cyclo-propyl-7-[4-(5-methyl-1,3,4-oxadiazol-2-yl)phenyl]-3,4-dihydropyrrolo[1,2-a]pyrazine-2,8(1H)-dicarboxamide], 0.065 µM; in that of `CC(C)(C)NC(=O)N1CCn2c(c(C(N)=O)c(-c3ccc(-c4ccccc4)cc3)c2C2CC2)C1` [Compound 15, 7-(biphenyl-4-yl)-N^2-tert-butyl-6-cyclo-propyl-3,4-dihydropyrrolo[1,2-a]pyrazine-2,8(1H)-dicarboxamide], 0.002 to 0.004 µM.
With `CON(C)C(=O)c1ccc(-c2c(C(N)=O)c3n(c2C2CC2)CCN(C(=O)NC(C)(C)C)C3)cc1` [Compound 20, N^2-tert-butyl-6-cyclo-propyl-7-{4-[methoxy(methyl)carbamoyl]phenyl}-3,4-dihydropyrrolo[1,2-a]pyrazine-2,8(1H)-dicarboxamide], inhibition was half-maximal at 0.62 µM (IC50).
Consider `CC(C)(C)NC(=O)N1CCn2c(c(C(N)=O)c(-c3ccc(OCC#N)cc3)c2C2CC2)C1` [Compound 43, N^2-tert-butyl-7-[4-(cyanomethoxy)phenyl]-6-cyclo-propyl-3,4-dihydropyrrolo[1,2-a]pyrazine-2,8(1H)-dicarboxamide], for which the IC50 was 0.024 µM.
Under `CN(C)c1ccc(-c2c(C(N)=O)c3n(c2C2CC2)CCN(C(=O)NC(C)(C)C)C3)cc1` [Compound 28, N^2-tert-butyl-6-cyclo-propyl-7-[4-(dimethylamino)phenyl]-3,4-dihydropyrrolo[1,2-a]pyrazine-2,8(1H)-dicarboxamide] stands 0.004 µM.
On to `NC(=O)c1c(-c2ccccc2)c(C2CC2)n2c1CN(C(=O)NCC1CCCCC1)CC2` [Compound 50, N^2-(cyclo-hexylmethyl)-6-cyclo-propyl-7-phenyl-3,4-dihydropyrrolo[1,2-a]pyrazine-2,8(1H)-dicarboxamide], for which the 50% inhibitory concentration (IC50) was determined as 0.025 µM.
Under `CC(C)(C)NC(=O)N1CCn2c(c(C(N)=O)c(-c3ccc(-n4cccn4)cc3)c2C2CC2)C1` [Compound 31, N^2-tert-butyl-6-cyclo-propyl-7-[4-(1H-pyrazol-1-yl)phenyl]-3,4-dihydropyrrolo[1,2-a]pyrazine-2,8(1H)-dicarboxamide] stands 0.005 to 0.029 µM.
As for `NC(=O)c1c(-c2ccccc2)c(C2CC2)n2c1CN(C(=O)NC1CCCCC1)CC2` [Compound 49, N^2-cyclo-hexyl-6-cyclo-propyl-7-phenyl-3,4-dihydropyrrolo[1,2-a]pyrazine-2,8(1H)-dicarboxamide], the IC50 was 0.017 to 0.028 µM.
In the case of `CC(C)(C)NC(=O)N1CCn2c(c(C(N)=O)c(-c3cccc(OCC4CC4)c3)c2C2CC2)C1` [Compound 33, N^2-tert-butyl-6-cyclo-propyl-7-[3-(cyclo-propylmethoxy)phenyl]-3,4-dihydropyrrolo[1,2-a]pyrazine-2,8(1H)-dicarboxamide] it was 0.847 µM.
In the case of `CC(C)(C)NC(=O)N1CCn2c(c(C(N)=O)c(-c3cccc(F)c3)c2C2CC2)C1` [Compound 46, N^2-tert-butyl-6-cyclo-propyl-7-(3-fluorophenyl)-3,4-dihydropyrrolo[1,2-a]pyrazine-2,8(1H)-dicarboxamide] it was 0.005 to 0.011 µM; in that of `COc1ccc(-c2c(C(N)=O)c3n(c2C2CC2)CCN(C(=O)NC2CC2)C3)cc1` [Compound 6, N^2-6-di-cyclo-propyl-7-(4-methoxyphenyl)-3,4-dihydropyrrolo[1,2-a]pyrazine-2,8(1H)-dicarboxamide], 0.028 to 0.057 µM.

(Values after US9233965B2, “3,4-dihydropyrrolo[1,2-A]pyrazine-2,8(1H)-dicarboxamide derivatives, preparation thereof and therapeutic use thereof for diseases involving casein kinase 1 epsilon and/or casein kinase 1 delta” (SANOFI, priority 2010, dated 2016).)
